The source of these data is US6485924B2, “Method for identifying inhibitors of cytokinesis” (Boehringer Ingelheim International GmbH, priority 1999, dated 2002).

Where only a bound is given, the exact number is not on record here.

Test [1] addresses T1, XSepA (Xenopus laevis, UniProt Q9DE33).
T1 construct: made in house; host or cells: E. coli BL21(DE3)
T1 sequence (Q9DE33 1-356): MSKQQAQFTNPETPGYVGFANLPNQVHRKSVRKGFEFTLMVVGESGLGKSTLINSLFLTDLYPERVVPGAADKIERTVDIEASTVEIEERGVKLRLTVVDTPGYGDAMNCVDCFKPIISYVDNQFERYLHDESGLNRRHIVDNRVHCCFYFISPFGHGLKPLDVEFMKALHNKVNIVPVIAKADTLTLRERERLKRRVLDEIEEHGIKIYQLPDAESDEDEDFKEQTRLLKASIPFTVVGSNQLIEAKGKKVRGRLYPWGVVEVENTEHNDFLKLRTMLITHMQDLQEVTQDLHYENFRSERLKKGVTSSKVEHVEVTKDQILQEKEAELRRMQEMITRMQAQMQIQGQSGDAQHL
The test can be described thus: Filament assembly / polymerization followed by immunofluorescence microscopy. The test is classed as biochemical. As to conditions: for filamentous structures observed: control nucleotide used instead of GTP, 30 minutes; for length of the lag phase of polymerization: 1 mg/ml XSepA, 0.1 mM nucleotide; for critical concentration for XSepA polymerization: 30 min incubation with nucleotide. As to the method: (§1) Polymerization reactions were carried out in S-buffer in the presence of 5 mM MgCl2 and GTP, GTP-γ-S, GDP or ATP (Gibco). Before nucleotide addition, all samples were pre-cleared in an ultracentrifuge (see below). Aliquots of the reaction were diluted to a final septin concentration of 3.3 μg/ml, and 100 μl drops spotted on glass coverslips for 1 min. Before use, coverslips were soaked with an acetone solution of 0.5% 3-aminopropyltriethoxy-silane (Sigma), washed in acetone and air-dried. Following sample application, the coverslips were washed with 2 ml S-buffer, fixed in cold methanol for 10 min and stained with a polyclonal rabbit antibody raised against an N-terminal peptide of XSepA (M. Glotzer and T. Hyman, in preparation). Secondary antibodies were DTAF-coupled anti-rabbit (Dianova). Images were acquired using a Zeiss Axioplan II microscope and Adobe Photoshop software. Processing and analysis of immunofluorescence images was performed on a Macintosh computer using the public domain NIH Image program (developed at the U.S. National Institutes of Health and available at http://rsb.info.nih.gov/nih-image). Thresholded binary images were generated, and particle length was obtained by measuring the major axis of the best fitting ellipse. Particles with length <0.4 μm were not included in the analysis. Although filaments tended to be straight, this procedure results in underestimation of the length of curved filaments. For sedimentation assays, 20 μl polymerization reactions containing 1 mg/ml septin were pre-cleared in an ultracentrifuge at 279000×g for 15 min at 4° C. Precleared samples were incubated with nucleotide at room temperature for 30 min and spun through a 50% glycerol cushion at 279000×g for 15 min at 25° C.
Filament forming proteins like actin, tubulin and FtsZ polymerize in a nucleotide-dependent fashion. To test whether septin filament assembly is regulated by a similar mechanism, XSepA was incubated with GTP (or its slowly hydrolyzable analogue GTP-γ-S) for 30 minutes and spotted onto glass coverslips. After the coverslips were fixed and stained with anti-XSepA antibody, filamentous structures of up to 7 μm in length were observed. […] FIGS. 2A and 2B depict the GTP-dependent assembly of XSepA and Δcc-SepA filaments. Top panels: Immunostainings of septin preparations (1 mg/ml) incubated with 0.1 mM of the indicated nucleotide for 30 min and diluted in S-buffer prior to fixation. Filamentous structures are observed with both full-length (A) and Δcc-SepA (B) only in the presence of GTP or GTP-γ-S. Bottom panels: Identical reactions were centrifuged through a 50% glycerol cushion at 279000×g for 15 min. Supernatants (S) and pellets (P) were collected and resolved by gel electrophoresis.
To gain insight into the polymerization mechanism of XSepA, the kinetics of the filament formation reaction was followed using immunofluorescence microscopy. At different times after GTP addition, aliquots of septin protein were processed for immunofluorescence as already described. For each time point, individual septin filaments were counted and their lengths measured. The length of all the filaments present in a field was added, and the result (proportional to the polymer mass) was plotted against time. Immunofluorescence images were acquired as described and the length of the filaments was measured (see Methods section). The relative polymer mass was obtained by adding the length of all the filaments present in a field. Each point represents data from four random fields. Only filaments of ≧400 nm in length were considered in the analysis. (A) Time course of filament assembly. At different times following nucleotide addition to 0.1 mM (t=0 min) aliquots of a reaction containing 1 mg/ml XSepA were diluted 300-fold and spotted on coverslips for 1 min before washing and fixation. (B) Determination of the critical concentration for polymerization. […]

For test [2], the target named is T1, XSepA. The test can be described thus: GTP filter binding assay. As to conditions: for ability of cold nucleotide to compete with the radiolabeled guanine nucleotide: data not shown. How it is done: For GTP binding, 1 μM of XSepA (or Δcc-SepA) in S-buffer was incubated with 0.1 mg/ml BSA, 5 mM MgCl2 and 4.4 μM ^3H-GTP (4.60 Ci/mmol, 1 mCi/ml; Amersham). At time intervals, aliquots of the reaction were diluted in cold wash buffer (20 mM Tris pH 8.0, 50 mM NaCl, 5 mM MgCl2) and filtered through pre-wetted nitrocellulose circles (Schleicher and Schuell) Filters were washed with 10 ml of wash buffer, dried, and the retained radioactivity quantified in a scintillation counter.
The ability of recombinant XSepA to bind guanine nucleotide was tested by using a filter binding assay. […] To assay for GTP hydrolysis, XSepA was incubated with limiting amounts of [α-^32P]GTP and the production of radioactive GDP was followed by thin layer chromatography. […] FIGS. 1C and 1D show time courses of GTP binding and hydrolysis by XSepA and Δcc-SepA. Recombinant protein (1 μM) was incubated with an excess of [^3H]GTP to quantify nucleotide binding, or with sub-stoichiometric amounts of [α-^32P]GTP to detect nucleotide hydrolysis. (C) GTP binding as determined by a filter-binding assay. (D) TLC plate showing generation of radioactive GDP from GTP. Aliquots of the reaction were quenched in a denaturing solution at the indicated time, and the nucleotide content was resolved by TLC. BSA (0.1 mg/ml) was used as a negative control in both experiments.)

Test [3] deals with T1, XSepA. The test can be described thus: Filament sedimentation assay through glycerol cushion. The following applies: 1 mg/ml septin, 0.1 mM nucleotide, 30 min, 279000×g. The test is classed as biochemical. How it is done:
as §1, with “Although filaments tended to be straight, this procedure results in underestimation of the length of curved filaments. For sedimentation assays, 20 μl polymerization reactions containing 1 mg/ml septin were pre-cleared in an ultracentrifuge at 279000×g for 15 min at 4° C. Precleared samples were incubated with nucleotide at room temperature for 30 min and spun through a 50% glycerol cushion at 279000×g for 15 min at 25° C.” left out

Test [4] has as its target T2, XSepA filaments (Xenopus laevis, UniProt Q9DE33).
T2 construct: made in house; host or cells: E. coli BL21(DE3)
T2 sequence (Q9DE33 1-356): T1 sequence (Q9DE33 1-356)
The test can be described thus: Dilution-induced filament depolymerization. The test is classed as biochemical. The following applies: 20 min after 600-fold dilution into buffer. How it is done:
To gain insight into the polymerization mechanism of XSepA, the kinetics of the filament formation reaction was followed using immunofluorescence microscopy. At different times after GTP addition, aliquots of septin protein were processed for immunofluorescence as already described. For each time point, individual septin filaments were counted and their lengths measured. The length of all the filaments present in a field was added, and the result (proportional to the polymer mass) was plotted against time. Immunofluorescence images were acquired as described and the length of the filaments was measured (see Methods section). The relative polymer mass was obtained by adding the length of all the filaments present in a field. Each point represents data from four random fields. Only filaments of ≧400 nm in length were considered in the analysis. (A) Time course of filament assembly. […] Polymer content was determined after 30 min incubation. […] In (B) and (C) a curve was fitted to the data points where filaments were detected.
To address the role of GTP hydrolysis in septin filament formation, the polymerization kinetics of XSepA in the presence of a slowly hydrolysable GTP analogue, GTP-γ-S, was studied. […] To investigate directly whether nucleotide hydrolysis promotes disassembly, filaments assembled with GTP or GTP-γ-S were diluted 600-fold into buffer and depolymerization rates were determined. […]

For test [5] the following is noted: literature values; tubulin: pure, in glycerol buffer; cited from earlier work.

Turning to `Nc1ncnc2c1ncn2[C@@H]1O[C@H](COP(=O)(O)OP(=O)(O)OP(=O)(O)O)[C@@H](O)[C@H]1O` [ATP], the filamentous structures observed result in test [1] is listed as “This was not the case”. Further, in test [2], the “ability of cold nucleotide to compete with the radiolabeled guanine nucleotide” value is given as “not”.
In the same order, the values of `Nc1nc2c(ncn2[C@@H]2O[C@H](COP(=O)(O)OP(=O)(O)O)[C@@H](O)[C@H]2O)c(=O)[nH]1` [GDP] are “This was not the case” and “not”.
On to `Nc1nc2c(ncn2[C@@H]2O[C@H](COP(=O)(O)OP(=O)(O)OP(=O)(O)O)[C@@H](O)[C@H]2O)c(=O)[nH]1` [GTP, guanosine triphosphate], for which, in test [1], the “length of the lag phase of polymerization” value was found to be 5 min and the “critical concentration for XSepA polymerization” value stood at 0.5 mg/mL. Further, the “sedimentable fraction of septin after incubation with nucleotide” value in test [3] is listed as “increased significantly”. In addition, the “ability of cold nucleotide to compete with the radiolabeled guanine nucleotide” value in test [2] is reported as “able to compete”. For the same molecule, the GTP binding plateau in test [2] (filter binding, excess [3H]GTP) is given as 0.4-0.5 moles GTP/moles of XSepA. In test [2] (limiting concentration of nucleotide, not shown), the “time to essentially complete maximum of nucleotide binding” value was not above 5 min. The depolymerization after dilution result in test [4] is given as “essentially complete”.
Take `Nc1nc2c(ncn2[C@@H]2O[C@H](COP(=O)(O)OP(=O)(O)OP(O)(O)=S)[C@@H](O)[C@H]2O)c(=O)[nH]1` [GTP-γ-S]: in test [1], the “length of the lag phase of polymerization” value was 3 min and the “critical concentration for XSepA polymerization” value is 0.2 mg/mL. Moreover, the “sedimentable fraction of septin after incubation with nucleotide” value in test [3] was “increased significantly”. Also, in test [4], the filaments still present result was “ca. 30 % of their initial level”.
On to actin, for which, in test [5], the “critical concentration for polymerization” value is approximately 0.2 µM.
